Patent US4136165A, “Cosmetic preparations with alkoxybenzoic acid esters as inflammation inhibitors and method” (Henkel Kommanditgesellschaft auf Aktien, priority 1976, dated 1979)
Like-named read-outs stand apart in the source and are kept apart here.

Experiments:
[1] = tested on: Carrageenin edema, rat's paw; experiment: Rat's paw test, carrageenin edema (amputation methodology); assay type: in vivo; settings: 1000 mg/kg p.o. one hour before initiating the inflammation, paws weighed three hours after carrageenin
Text: The so-called amputation methodology, described by C. H. Winter in Journal of Pharmaceutical and Experimental Therapeutics, Vol. 141 (1963), page 369, was used as a further rat's paw test. In this method, the test animals are killed three hours after injecting the substance causing the inflammation, and the weights of the paws are ascertained. The product used to cause inflammation in these tests is carrageenin. The inhibiting of the development of the edema of the rats' paws by the test substance, which was administered orally one hour before initiating the inflammation,serves as an indication of the efficacy and is expressed in percentages.

[2] = Orientating test of toxicity; settings: in vivo
Method: The alkoxybenzoic acid esters, to be used in accordance with the present invention, were tested for their inflammation-inhibiting properties in the experiments described hereinafter. An orientating test of their toxicity was first carried out in order to be able to establish the test dosages for further experiments.

[3] = tested on: UV edema in hairless mouse; experiment: Ultraviolet test on hairless mice (UV edema, skin fold thickness); assay type: in vivo; settings: 5% in Vaseline, skin fold thickness after 30 hrs
Method: However, an ultraviolet test was carried out on hairless mice which also provide information concerning the efficacy of the substances for use as agents for treating sunburn. The backs of the hairless mice were exposed to radiation by an ultraviolet lamp for thirty minutes from a distance of 60 cm, thus causing a cutaneous inflammation. […] The dosage of the test substances was the same as in the rat's paw test. The degree of formation of edema was determined by measuring the skin fold thickness after thirty hours. The degree of the percentage inhibition of the erythema is given in the following Table I and was determined by comparing the change in the skin fold thickness, caused in treated test animals by exposure to radiation, with the change in the skin fold thickness in animals which, although exposed to radiation, had not been treated.

Dextran edema, rat's paw = experiment: Edema of the rat's paw test, dextran edema; assay type: in vivo; settings: 1000 mg/kg p.o. thirty minutes before dextran, measured thirty minutes after dextran injection
Method: The edema of the rat's paw test, as described by F. Kemper in "Arzneimittelforschung" 10 (1960), p. 777, was used as a test for assessing the compounds with respect to their suitability for inhibiting inflammation. In order to produce the edema, 0.1 ml of 6% dextran solution was injected to a depth of approximately 5 mm between the second and third toe of the right hind paw of the test animals. While only the dextran solution was administered to the control test animals, the various test substances were injected or administered per os to the test animals in the quantities given in Table I thirty minutes before the test animals were injected with the dextran solution. The volume of the paws was determined by means of the electrical volume measuring device described in detail by Kemper & Amelin in "Zeitschrift fur die gesamte experimentelle Medizin" 131 (1958), p. 407.
The measurements were taken thirty minutes after the dextran solution injection. For the purpose of comparison, the left untreated paw was in each case measured at the said times. The amount of the swelling in animals which had been treated with the test substance and in non-treated animals thirty minutes after the dextran injection were used to calculate the degree of the inhibiting of the edema as a percentage of the swelling which occurred in animals which had not received any test substance.

[4] = tested on: UV erythema in guinea pig; experiment: Ultraviolet erythema test in guinea pigs; assay type: in vivo; settings: 5% Tincture, mean of assessments six hours after radiation and the following morning
Method: Guinea pigs were subjected to the ultraviolet erythema test in a further experiment. For this purpose, the hair was removed from the backs of the test animals by shearing and treatment with a depilatory cream. The test animals were then exposed to radiation for eight minutes, and the marked test areas were then treated with the test solutions or salves. A second application was effected after thirty minutes, and a third and the following treatments were effected at intervals of sixty minutes. Six hours after having been exposed to radiation, the animals were washed, dried and visually assessed.
Assessment was repeated the following morning and the mean value for each substance was calculated from the two assessments. The two spots exposed to radiation directly behind the ears were chosen as reference points which had been exposed to radiation and which had not been treated. The intensity of the redness of these spots was equated with 0. Disappearance of the redness at the treated places was assessed by plus points up to +4 (no spots visible), and an intensification of the redness was assessed with minus points up to -4 (formation of blisters). The total of the assessments from the two evaluations, expressed in the ratio to the number of animals times 8 as the maximum attainable value (= 100%) gives the percentage inhibiting value of the substance. The inhibiting values ascertained in this manner are given in the following table under the heading "UR Erythema Guinea Pigs".

SMILES | Rat's Paw Test Carrageenin Edema Inhibition [1] [%] | LD50 ([2]; read-out: Orientating Toxicity) [mg/kg] | UV Edema in Hairless Mouse Inhibition After 30 hrs [3] [%] | Rat's Paw Test Dextran Edema Inhibition (Dextran edema, rat's paw) [%] | UV Erythema in Guinea Pig Inhibition [4] [%] | Orientating Toxicity [2] | LD50 [2] [mg/kg]
CCCOC(=O)c1ccc(OC)cc1 [Compound A, n-Propyl Anisate] | 12 | > 1000 | 49 | 25 | 60 | – | –
COC(=O)c1ccc(OC)cc1 [Compound B, Methyl Anisate] | 18 | > 1000 | 41 | 28 | 31 | – | –
COc1ccc(C(=O)OC(C)C)cc1 [Compound C, Isopropyl Anisate] | 9 | > 1000 | 38 | 20 | 40 | – | –
CCCCOC(=O)c1ccc(OC)cc1 [Compound D, Butyl Anisate] | 11 | > 1000 | 36 | 9 | 51 | – | –
COc1ccc(C(=O)OC(C)(C)C)cc1 [Compound E, Tert.-Butyl Anisate] | 41 | > 1000 | 30 | 11 | 43 | – | –
COc1ccc(C(=O)OCC(C)(C)C)cc1 [Compound F, 2,2-Dimethyl-propyl Anisate] | 30 | – | 35 | 15 | 48 | 22 1.0 gm/kg | –
COc1ccc(C(=O)OCc2ccccc2)cc1 [Compound G, Benzyl Anisate] | 19 | – | 31 | 5 | 46 | – | > 1000
